Test results reported in patent US20030186967A1, “Acylresorcinol derivatives are selective vitronectin receptor inhibitors” (American Home Products Corporation, priority 1998, published 2003).

molecular target: T1, Vitronectin receptor αVβ3 (Homo sapiens, UniProt P05106+P06756); experiment: Vitronectin Receptor αVβ3 Binding Assay; conditions: read-out: VnR (IC50μM)
T1 construct: expressed in transfected cells; host or cells: 512P5 cells (plasma membrane preparation)
T1 sequence (P06756 31-889 limits assumed): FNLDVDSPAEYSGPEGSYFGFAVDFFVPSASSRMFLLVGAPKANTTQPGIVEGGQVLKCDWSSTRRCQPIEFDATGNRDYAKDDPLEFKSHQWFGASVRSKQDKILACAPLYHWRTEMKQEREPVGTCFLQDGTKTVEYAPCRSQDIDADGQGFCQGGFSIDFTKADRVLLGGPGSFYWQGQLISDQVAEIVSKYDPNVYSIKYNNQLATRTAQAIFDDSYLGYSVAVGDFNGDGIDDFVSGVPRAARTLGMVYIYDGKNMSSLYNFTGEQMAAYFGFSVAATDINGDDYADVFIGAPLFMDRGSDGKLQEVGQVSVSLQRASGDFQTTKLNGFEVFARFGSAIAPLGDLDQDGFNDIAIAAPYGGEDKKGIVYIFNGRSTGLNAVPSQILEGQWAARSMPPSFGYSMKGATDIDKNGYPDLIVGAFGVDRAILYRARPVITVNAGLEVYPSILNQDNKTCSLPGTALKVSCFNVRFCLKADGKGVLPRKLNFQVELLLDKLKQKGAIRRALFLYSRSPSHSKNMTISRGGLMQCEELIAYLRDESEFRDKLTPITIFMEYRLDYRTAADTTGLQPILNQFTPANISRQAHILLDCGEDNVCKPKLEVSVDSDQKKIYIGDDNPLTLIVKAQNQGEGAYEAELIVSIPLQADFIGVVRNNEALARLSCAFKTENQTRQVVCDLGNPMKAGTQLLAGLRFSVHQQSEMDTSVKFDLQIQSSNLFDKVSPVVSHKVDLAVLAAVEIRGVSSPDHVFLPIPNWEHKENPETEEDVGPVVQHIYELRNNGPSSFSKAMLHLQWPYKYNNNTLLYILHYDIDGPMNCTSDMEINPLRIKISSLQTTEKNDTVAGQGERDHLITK
T1 sequence (P06756 891-1048 partner limits assumed): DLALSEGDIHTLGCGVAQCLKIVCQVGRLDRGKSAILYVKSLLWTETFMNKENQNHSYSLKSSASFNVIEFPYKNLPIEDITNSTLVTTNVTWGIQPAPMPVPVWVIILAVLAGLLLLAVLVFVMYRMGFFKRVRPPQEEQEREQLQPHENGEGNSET
T1 sequence (P05106 27-788): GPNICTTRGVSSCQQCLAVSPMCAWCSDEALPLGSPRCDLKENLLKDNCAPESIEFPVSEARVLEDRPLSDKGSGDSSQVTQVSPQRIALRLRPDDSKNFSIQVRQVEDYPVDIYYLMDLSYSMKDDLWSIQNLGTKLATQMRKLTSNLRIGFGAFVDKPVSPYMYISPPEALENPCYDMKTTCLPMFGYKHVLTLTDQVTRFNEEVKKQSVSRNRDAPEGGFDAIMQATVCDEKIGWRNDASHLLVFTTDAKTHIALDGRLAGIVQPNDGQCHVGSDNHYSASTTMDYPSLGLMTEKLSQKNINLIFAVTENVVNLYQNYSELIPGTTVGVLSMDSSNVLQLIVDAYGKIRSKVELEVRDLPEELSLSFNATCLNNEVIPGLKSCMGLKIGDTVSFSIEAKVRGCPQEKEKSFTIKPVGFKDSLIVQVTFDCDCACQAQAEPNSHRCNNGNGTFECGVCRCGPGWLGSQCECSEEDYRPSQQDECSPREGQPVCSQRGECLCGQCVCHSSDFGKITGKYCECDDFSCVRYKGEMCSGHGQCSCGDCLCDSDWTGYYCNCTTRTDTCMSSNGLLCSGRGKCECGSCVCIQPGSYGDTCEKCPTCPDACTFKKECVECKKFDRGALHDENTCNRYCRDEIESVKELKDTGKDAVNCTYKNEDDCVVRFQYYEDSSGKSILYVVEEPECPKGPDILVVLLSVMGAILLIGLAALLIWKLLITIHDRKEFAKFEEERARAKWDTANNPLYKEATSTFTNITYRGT

IC50 | Structure (SMILES)
0.0241 µM | CC(C)(C)COC(=O)N[C@@H](CNC(=O)c1ccc(OCCNC2=NCCCN2)cc1O)C(=O)O [Example 1, (2S)-3-({2-hydroxy-4-[2-(1,4,5,6-tetrahydropyrimidin-2-ylamino)ethoxy]benzoyl}amino)-2-{[(neopentyloxy)carbonyl]amino}propanoic acid]
0.187 µM | COC(=O)N[C@@H](CNC(=O)c1ccc(OCCNC2=NCCCN2)cc1O)C(=O)O [Example 2, (2S)-3-({2-hydroxy-4-[2-(1,4,5,6-tetrahydropyrimidin-2-ylamino)ethoxy]benzoyl}-amino)-2-[(methoxycarbonyl)amino]propanoic acid]
0.123 µM | CCOC(=O)N[C@@H](CNC(=O)c1ccc(OCCNC2=NCCCN2)cc1O)C(=O)O [Example 3, (2S)-2-[(ethoxycarbonyl)amino]-3-({2-hydroxy-4-[2-(1,4,5,6-tetrahydropyrimidin-2ylamino)ethoxy]benzoyl}amino)propanoic acid]
0.095 µM | CCCOC(=O)N[C@@H](CNC(=O)c1ccc(OCCNC2=NCCCN2)cc1O)C(=O)O [Example 4, (2S)-3-({2-hydroxy-4-[2-(1,4,5,6-tetrahydropyrimidin-2-ylamino)ethoxy]benzoyl}-amino)-2-[(propoxycarbonyl)amino]propanoic acid]
0.061 µM | CC(C)OC(=O)N[C@@H](CNC(=O)c1ccc(OCCNC2=NCCCN2)cc1O)C(=O)O [Example 5, (2S)-3-({2-hydroxy-4-[2-(1,4,5,6-tetrahydropyrimidin-2-ylamino)ethoxy]benzoyl}-amino)-2-[(isopropoxycarbonyl)amino]propanoic acid]
0.108 µM | C=CCOC(=O)N[C@@H](CNC(=O)c1ccc(OCCNC2=NCCCN2)cc1O)C(=O)O [Example 6, (2S)-2-{[(allyloxy)carbonyl]amino}-3-({2-hydroxy-4-[2-(1,4,5,6-tetrahydropyrimidin-2-ylamino)ethoxy]benzoyl}amino)propanoic acid]
0.092 µM | C=CCCOC(=O)N[C@@H](CNC(=O)c1ccc(OCCNC2=NCCCN2)cc1O)C(=O)O [Example 7, (2S)-2-{[(but-3-enyloxy)carbonyl]amino}-3-({2-hydroxy-4-[2-(1,4,5,6-tetrahydropyrimidin-2-ylamino)ethoxy]benzoyl}amino)propanoic acid]
> 1 µM | CCCCCCOC(=O)N[C@@H](CNC(=O)c1ccc(OCCNC2=NCCCN2)cc1O)C(=O)O [Example 8, (2S)-2-{[(hexyloxy)carbonyl]amino}-3-({2-hydroxy-4-[2-(1,4,5,6-tetrahydropyrimidin-2-ylamino)ethoxy]benzoyl}amino)propanoic acid]
0.11 µM | CCCCCCCCOC(=O)N[C@@H](CNC(=O)c1ccc(OCCNC2=NCCCN2)cc1O)C(=O)O [Example 9, (2S)-3-({2-hydroxy-4-[2-(1,4,5,6-tetrahydropyrimidin-2-ylamino)ethoxy]benzoyl}-amino)-2-{[(octyloxy)carbonyl]amino}propanoic acid]
0.061 µM | O=C(N[C@@H](CNC(=O)c1ccc(OCCNC2=NCCCN2)cc1O)C(=O)O)OCC(Cl)(Cl)Cl [Example 10, (2S)-3-({2-hydroxy-4-[2-(1,4,5,6-tetrahydropyrimidin-2-ylamino)ethoxy]-benzoyl}amino)-2-{[(2,2,2-trichloroethoxy)carbonyl]amino}propanoic acid]
0.183 µM | C#CCOC(=O)N[C@@H](CNC(=O)c1ccc(OCCNC2=NCCCN2)cc1O)C(=O)O [Example 13, (2S)-3-({2-hydroxy-4-[2-(1,4,5,6-tetrahydropyrimidin-2-ylamino)ethoxy]benzoyl}-amino)-2-{[(prop-2-ynyloxy)carbonyl]amino}propanoic acid]
0.0445 µM | O=C(N[C@@H](CNC(=O)c1ccc(OCCNC2=NCCCN2)cc1O)C(=O)O)OCc1ccccc1 [Example 14, (2S)-2-{[(benzyloxy)carbonyl]amino}-3-({2-hydroxy-4-[2-(1,4,5,6-tetrahydropyrimidin-2-ylamino)ethoxy]benzoyl}amino)propanoic acid]
1.44 µM | O=C(Nc1ccccc1)N[C@@H](CNC(=O)c1ccc(OCCNC2=NCCCN2)cc1O)C(=O)O [Example 20, (2S)-2-[(anilinocarbonyl)amino]-3-({2-hydroxy-4-[2-(1,4,5,6-tetrahydropyrimidin-2-ylamino)ethoxy]benzoyl}amino)propanoic acid]
1.52 µM | O=C(NC1CCCCC1)N[C@@H](CNC(=O)c1ccc(OCCNC2=NCCCN2)cc1O)C(=O)O [Example 21, (2S)-2-{[(cyclohexylamino)carbonyl]amino}-3-({2-hydroxy-4-[2-(1,4,5,6-tetrahydropyrimidin-2-ylamino)ethoxy]benzoyl}amino)propanoic acid]
1.02 µM | Cc1ccc(NC(=O)N[C@@H](CNC(=O)c2ccc(OCCNC3=NCCCN3)cc2O)C(=O)O)cc1 [Example 23, (2S)-3-({2-hydroxy-4-[2-(1,4,5,6-tetrahydropyrimidin-2-ylamino)ethoxy]benzoyl}-amino)-2-[(4-toluidinocarbonyl)amino]propanoic acid]
1.48 µM | Cc1ccccc1NC(=O)N[C@@H](CNC(=O)c1ccc(OCCNC2=NCCCN2)cc1O)C(=O)O [Example 24, (2S)-3-({2-hydroxy-4-[2-(1,4,5,6-tetrahydropyrimidin-2-ylamino)ethoxy]benzoyl}-amino)-2-[(2-toluidinocarbonyl)amino]propanoic acid]
0.674 µM | COc1ccccc1NC(=O)N[C@@H](CNC(=O)c1ccc(OCCNC2=NCCCN2)cc1O)C(=O)O [Example 25, (2S)-3-({2-hydroxy-4-[2-(1,4,5,6-tetrahydropyrimidin-2-ylamino)ethoxy]benzoyl}-amino)-2-{[(2-methoxyanilino)carbonyl]amino}propanoic acid]
0.331 µM | O=C(Nc1ccccc1Cl)N[C@@H](CNC(=O)c1ccc(OCCNC2=NCCCN2)cc1O)C(=O)O [Example 27, (2S)-2-{[(2-chloroanilino)carbonyl]amino}-3-({2-hydroxy-4-[2-(1,4,5,6-tetrahydropyrimidin-2-ylamino)ethoxy]benzoyl}amino)propanoic acid]
0.159 µM | O=C(Nc1ccccc1Br)N[C@@H](CNC(=O)c1ccc(OCCNC2=NCCCN2)cc1O)C(=O)O [Example 28, (2S)-2-{[(2-bromoanilino)carbonyl]amino}-3-({2-hydroxy-4-[2-(1,4,5,6-tetrahydropyrimidin-2-ylamino)ethoxy]benzoyl}amino)propanoic acid]
0.405 µM | O=C(Nc1ccccc1-c1ccccc1)N[C@@H](CNC(=O)c1ccc(OCCNC2=NCCCN2)cc1O)C(=O)O [Example 29, (2S)-2-{[([1,1′-biphenyl]-2-ylamino)carbonyl]amino}-3-({2-hydroxy-4-[2-(1,4,5,6-tetrahydropyrimidin-2-ylamino)ethoxy]benzoyl}amino)propanoic acid]
1.27 µM | O=C(Nc1ccc(Cl)cc1)N[C@@H](CNC(=O)c1ccc(OCCNC2=NCCCN2)cc1O)C(=O)O [Example 30, (2S)-2-{[(4-chloroanilino)carbonyl]amino}-3-({2-hydroxy-4-[2-(1,4,5,6-tetrahydropyrimidin-2-ylamino)ethoxy]benzoyl}amino)propanoic acid]
0.261 µM | O=C(Nc1cccc2ccccc12)N[C@@H](CNC(=O)c1ccc(OCCNC2=NCCCN2)cc1O)C(=O)O [Example 31, (2S)-3-({2-hydroxy-4-[2-(1,4,5,6-tetrahydropyrimidin-2-ylamino)ethoxy]benzoyl}-amino)-2-{[(1-naphthylamino)carbonyl]amino}propanoic acid]
34 µM | CC(C)(C)COC(=O)N[C@@H](CNC(=O)c1ccc(OCCNc2ncccn2)cc1O)C(=O)O [Example 53, (2S)-3-({2-hydroxy-4-[2-(pyrimidin-2-ylamino)ethoxy]benzoyl}-amino)-2-{[(neopentyloxy)carbonyl]amino}propanoic acid]
101 µM | O=C(N[C@@H](CNC(=O)c1ccc(OCCNc2ncccn2)cc1O)C(=O)O)OCc1ccccc1 [Example 55, (2S)-2-{[(benzyloxy)carbonyl]amino}-3-({2-hydroxy-4-[2-(pyrimidin-2-ylamino)ethoxy]benzoyl}amino)propanoic acid]
100 µM | CCCCCCCCOC(=O)N[C@@H](CNC(=O)c1ccc(OCCNc2ncccn2)cc1O)C(=O)O [Example 58, (2S)-3-({2-hydroxy-4-[2-(pyrimidin-2-ylamino)ethoxy]benzoyl}amino)-2-{[(octyloxy)carbonyl]amino}propanoic acid]
100 µM | CCCCCCOC(=O)N[C@@H](CNC(=O)c1ccc(OCCNc2ncccn2)cc1O)C(=O)O [Example 62, (2S)-2-{[(hexyloxy)carbonyl]amino}-3-({2-hydroxy-4-[2-(pyrimidin-2-ylamino)-ethoxy]benzoyl}amino)propanoic acid]

Structure (SMILES) | IC50
CCCCOC(=O)N[C@@H](CNC(=O)c1ccc(OCCNC2=NCCCN2)cc1O)C(=O)O [Example 11, (2S)-3-({2-hydroxy-4-[2-(1,4,5,6-tetrahydropyrimidin-2-ylamino)ethoxy]-benzoyl}amino)-2-[(butoxycarbonyl)amino]propanoic acid] | 0.0696 µM
CC(C)COC(=O)N[C@@H](CNC(=O)c1ccc(OCCNC2=NCCCN2)cc1O)C(=O)O [Example 12, (2S)-3-({2-hydroxy-4-[2-(1,4,5,6-tetrahydropyrimidin-2-ylamino)ethoxy]benzoyl}-amino)-2-[(isobutoxycarbonyl)amino]propanoic acid] | 0.0661 µM
O=C(N[C@@H](CNC(=O)c1ccc(OCCNc2ncccn2)cc1O)C(=O)O)Oc1ccccc1 [Example 54, (2S)-3-({2-hydroxy-4-[2-(pyrimidin-2-ylamino)ethoxy]benzoyl}amino)-2-[(phenoxycarbonyl)amino]propanoic acid] | 34 µM
CC(C)COC(=O)N[C@@H](CNC(=O)c1ccc(OCCNc2ncccn2)cc1O)C(=O)O [Example 56, (2S)-3-({2-hydroxy-4-[2-(pyrimidin-2-ylamino)ethoxy]benzoyl}amino)-2-[(isobutoxycarbonyl)amino]propanoic acid] | 85.8 µM
CCCCOC(=O)N[C@@H](CNC(=O)c1ccc(OCCNc2ncccn2)cc1O)C(=O)O [Example 59, (2S)-2-[(butoxycarbonyl)amino]-3-({2-hydroxy-4-[2-(pyrimidin-2-ylamino)ethoxy]benzoyl}amino)propanoic acid] | 100 µM
